Results reported in patent US9359341B2, “Aldehyde derivative of substitute oxazolidinones” (WANBURY LTD., priority 2012, dated 2016).

Experiments:
[1] = In vitro stability in human plasma; format: in vitro ADME; conditions: conversion to rivaroxaban seen from zero min
Protocol: The final concentration of the test compound in the assay is 5 micromolar. […] C. The 100 microliters of aliquot at time point was removed and diluted with ice cold acetonitrile containing IS (200.mu·L) to stop the reactions. Samples are centrifuged at 10,000 RPM for 5 minutes to precipitate proteins. Supernatants are transferred to micro centrifuge tubes and stored at −20° C. for analysis of LC/MS/MS. The percent parent remaining of the test substance is calculated as ratio of peak area at each time point to peak area ratio at zero min, multiplied by 100.
API 4000, ESI Agilent 1100 column: Gemini Nx 100 mm×4.6 mm 5.1; column temperature: 30° C.; eluent A: 0.1% formic acid in water, eluent B: acetonitrile; gradient: 0-2.5 min 95% A, 5% B; 2.5-2.6 min 5% A, 95% B; 2.6-4.2 min 95% A, 5% B; flow rate: 0.8 ml/min; ESI. Q1:464.098, Q3:144.255

[2] = In vitro liver microsomal stability assay (human); format: in vitro ADME; conditions: human liver microsomes
Protocol: Liver microsomal stability assays are conducted at 1 mg per mL liver microsome protein with an NADPH in phosphate buffer (100 mM, pH 7.4). Test compounds (compound of formula B of the invention) are prepared as solutions in 20% methanol-water and added to the assay mixture (final assay concentration 1 μM) and incubated at 37° C. Aliquots (100.μ·L) are taken out at times 0, 15, and 30 minutes, and diluted with ice cold acetonitrile containing IS (200.mu·L) to stop the reactions. Samples are centrifuged at 10,000 RPM for 5 minutes to precipitate proteins. Supernatants are transferred to micro centrifuge tubes and stored at −20° C. for analysis of LC/MS/MS. The percent parent remaining of the test substance is calculated as Ratio of peak area at each time point to peak area ratio at zero min, multiplied by 100. The compound formula (B) is converted to Rivaroxaban in microsomal assay.

[3] = test system: plasma protein; assay: Plasma protein binding (human); format: in vitro ADME
Protocol: A compound solution (1 mM in DMSO) (5 μL), according to the invention is added to the respective plasma matrices of rat or human or mouse (1 ml).
Add 150 ul of phosphate buffer to receiving side of the dialysis well. […] Precipitate with Acetonitrile and dilute samples prior to analysis in 1.5 ml polypropylene tubes. Remove 50 μl from the sample side of dialysis well and add 50 μl of phosphate buffer +300 μl of acetonitrile containing IS. Remove 50 μl from the buffer side of the dialysis well and add 50 μl of respective matrix plasma +300 μl of ACN. Then vortexed and centrifuged for 5 min, and supernatant is taken and injected into LCMS.
Different test concentration ranging from 0.1 μM to 20 μM are made in methanol:water (90:10). Test solutions are added to the premixed matrix containing plasma:phosphate buffer (50:50). Precipitate with 300 μl of ice cold acetonitrile containing IS, vortexes and centrifuged. Supernatant is taken and injected into LCMS. Percentage of plasma protein binding was obtained via Equation(2):% Fraction unbound=(concentration on the buffer side/concentration on the sample side)*100 Table-7

[4] = Stability in simulating intestinal fluid (SIF); format: physicochemical; conditions: over 120 min
Protocol: On completion of incubation period, the solution is centrifuged and supernatant is taken. To the supernatant, ice cold acetonitrile containing IS is added, vortexed and injected into LCMS/MS.
API 4000, ESI Agilent 1100 column: Gemini Nx 100 mm×4.6 mm 5.μ; column temperature: 30° C.; eluent A: 0.1% formic acid in water, eluent B: acetonitrile; gradient: 0-2.5 min 95% A, 5% B; 2.5-2.6 min 5% A, 95% B; 2.6-4.2 min 95% A, 5% B; flow rate: 0.8 ml/min; ESI. Q1:464.098, Q3:144.255
Prepared 0.1 mol of citric acid and 0.2 mol of di sodium hydrogen phosphate in water. Buffer pH 2.2, 4 and 7.8 are prepared using citric acid and disodium hydrogen phosphate by adjusting the pH with 0.1N HCl or 1N NaOHpH 7.4: 8.89 g disodium hydrogen phosphate (Solution A) add to 1 liter of water, 1.5601 g sodium di-hydrogen phosphate (solution B) are made up to 1 liter with water; Solution A (19 ml) and Solution B (81 ml) are mixed. SIF/SGF: 2.38 g of SIF original powder (biorelavant media) is dissolved in 1 L of milliQ water. The pH of the solution is adjusted for SIF (7.4) and SGF (2.2) with 0.1N HCl. The ratios of the peak areas (F) at the respective time points in relation to the peak areas at the starting time are calculated
The peak area (F) is directly correlated to the amount of test compound which is quantified by the LC MS method. […]

- Conversion: amount of test product detected [1]: min. Neglible
- Observation (metabolism; for Test Product: of the formed rivaroxaban) [2]: stable in human
- amount of test product detected ([2]; metabolised to rivaroxaban from zero min): Neglible amount
- Observation: amount of test product [3]: Not quantificable amount
- Observation: formed Rivaroxaban bound to plasma protein [3]: found to be High bound to
SMILES: O=CN(C[C@H]1CN(c2ccc(N3CCOCC3=O)cc2)C(=O)O1)C(=O)c1ccc(Cl)s1 [Compound formula B, 5-chloro-N-formyl-N-({(5S)-2-oxo-3-[4-(3-oxomorpholin-4-yl)phenyl]-1,3-oxazolidin-5-yl}methyl)thiophene-2-carboxamide]
- stability at simulating intestinal conditions [4]: stable at simulating intestinal conditions
